# Measured values from PubChem BioAssay (NCI).
#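 Values below derive from 48-hour exposures of cells grown in 96-well plates, with endpoints linearly interpolated between the two concentrations bracketing the appropriate inhibition level. TGI: total growth inhibition.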
# How the values were obtained:
# Test in all cases: inhibition of tumour cell growth, NCI panel, 48 h
# SR leukemia = test system: SR leukemia
# ACHN renal = test system: ACHN renal
# M19-MEL melanoma = test system: M19-MEL melanoma
# SF-295 CNS = test system: SF-295 CNS
# SNB-75 CNS = test system: SNB-75 CNS
# SK-MEL-28 melanoma = test system: SK-MEL-28 melanoma
# LXFL 529 NSCLC = test system: LXFL 529 NSCLC
# SNB-19 CNS = test system: SNB-19 CNS
# 786-0 renal = test system: 786-0 renal
# DLD-1 colon = test system: DLD-1 colon
# CAKI-1 renal = test system: CAKI-1 renal
# LOX IMVI melanoma = test system: LOX IMVI melanoma
# NCI-H460 lung = test system: NCI-H460 lung
# RPMI-8226 leukemia = test system: RPMI-8226 leukemia
# U251 CNS = test system: U251 CNS
# NCI-H522 lung = test system: NCI-H522 lung
# HOP-92 NSCLC = test system: HOP-92 NSCLC
# HOP-18 NSCLC = test system: HOP-18 NSCLC
# DMS 273 small cell lung = test system: DMS 273 small cell lung
# MOLT-4 leukemia = test system: MOLT-4 leukemia
# MALME-3M melanoma = test system: MALME-3M melanoma
# HCT-116 colon = test system: HCT-116 colon
# HCT-15 colon = test system: HCT-15 colon
# RXF 393 renal = test system: RXF 393 renal
# UO-31 renal = test system: UO-31 renal
# HL-60(TB) leukemia = test system: HL-60(TB) leukemia
# SN12C renal = test system: SN12C renal
# HOP-62 NSCLC = test system: HOP-62 NSCLC
# K-562 leukemia = test system: K-562 leukemia
# NCI-H23 lung = test system: NCI-H23 lung
# SK-MEL-2 melanoma = test system: SK-MEL-2 melanoma
# OVCAR-3 ovarian = test system: OVCAR-3 ovarian
# TK-10 renal = test system: TK-10 renal
# SW-620 colon = test system: SW-620 colon
# OVCAR-4 ovarian = test system: OVCAR-4 ovarian
# SF-539 CNS = test system: SF-539 CNS
# CCRF-CEM leukemia = test system: CCRF-CEM leukemia
# HT29 colon = test system: HT29 colon
# OVCAR-5 ovarian = test system: OVCAR-5 ovarian
# UACC-62 melanoma = test system: UACC-62 melanoma
# M14 melanoma = test system: M14 melanoma
# SF-268 CNS = test system: SF-268 CNS
# SK-MEL-5 melanoma = test system: SK-MEL-5 melanoma
# SNB-78 CNS = test system: SNB-78 CNS
# DMS 114 small cell lung = test system: DMS 114 small cell lung
# NCI-H226 lung = test system: NCI-H226 lung
# KM20L2 colon = test system: KM20L2 colon
# OVCAR-8 ovarian = test system: OVCAR-8 ovarian
# COLO 205 colon = test system: COLO 205 colon
# A549 NSCLC = test system: A549 NSCLC
# UACC-257 melanoma = test system: UACC-257 melanoma
# KM12 colon = test system: KM12 colon
# SK-OV-3 ovarian = test system: SK-OV-3 ovarian
# A498 renal = test system: A498 renal
# XF 498 CNS = test system: XF 498 CNS
# IGROV1 ovarian = test system: IGROV1 ovarian
# EKVX NSCLC = test system: EKVX NSCLC
compound,measurement,setting,value
CCOP(=O)(OCC)/C(C#N)=C/c1ccc[nH]1,TGI,SR leukemia,> 100 µM
same,TGI,ACHN renal,> 100 µM
same,TGI,M19-MEL melanoma,> 100 µM
same,TGI,SF-295 CNS,> 100 µM
same,TGI,SNB-75 CNS,> 100 µM
same,TGI,SK-MEL-28 melanoma,> 100 µM
same,TGI,LXFL 529 NSCLC,> 100 µM
same,TGI,SNB-19 CNS,> 100 µM
same,TGI,786-0 renal,> 100 µM
same,TGI,DLD-1 colon,> 100 µM
same,TGI,CAKI-1 renal,> 100 µM
same,TGI,LOX IMVI melanoma,> 100 µM
same,TGI,NCI-H460 lung,> 100 µM
same,TGI,RPMI-8226 leukemia,> 100 µM
same,TGI,U251 CNS,> 100 µM
same,TGI,NCI-H522 lung,> 100 µM
same,TGI,HOP-92 NSCLC,> 100 µM
same,TGI,HOP-18 NSCLC,> 100 µM
same,TGI,DMS 273 small cell lung,> 100 µM
same,TGI,MOLT-4 leukemia,> 100 µM
same,TGI,MALME-3M melanoma,> 100 µM
same,TGI,HCT-116 colon,> 100 µM
same,TGI,HCT-15 colon,> 100 µM
same,TGI,RXF 393 renal,> 100 µM
same,TGI,UO-31 renal,> 100 µM
same,TGI,HL-60(TB) leukemia,> 100 µM
same,TGI,SN12C renal,> 100 µM
same,TGI,HOP-62 NSCLC,> 100 µM
same,TGI,K-562 leukemia,> 100 µM
same,TGI,NCI-H23 lung,> 100 µM
same,TGI,SK-MEL-2 melanoma,> 100 µM
same,TGI,OVCAR-3 ovarian,> 100 µM
same,TGI,TK-10 renal,> 100 µM
same,TGI,SW-620 colon,> 100 µM
same,TGI,OVCAR-4 ovarian,> 100 µM
same,TGI,SF-539 CNS,> 100 µM
same,TGI,CCRF-CEM leukemia,> 100 µM
same,TGI,HT29 colon,> 100 µM
same,TGI,OVCAR-5 ovarian,> 100 µM
same,TGI,UACC-62 melanoma,> 100 µM
same,TGI,M14 melanoma,> 100 µM
same,TGI,SF-268 CNS,> 100 µM
same,TGI,SK-MEL-5 melanoma,> 100 µM
same,TGI,SNB-78 CNS,> 100 µM
same,TGI,DMS 114 small cell lung,> 100 µM
same,TGI,NCI-H226 lung,> 100 µM
same,TGI,KM20L2 colon,> 100 µM
same,TGI,OVCAR-8 ovarian,> 100 µM
same,TGI,COLO 205 colon,> 100 µM
same,TGI,A549 NSCLC,> 100 µM
same,TGI,UACC-257 melanoma,> 100 µM
same,TGI,KM12 colon,> 100 µM
same,TGI,SK-OV-3 ovarian,> 100 µM
COc1cccc(C2C(C(=O)O)=C(CO)Oc3cc4c(cc32)OCO4)c1 (centres undefined),TGI,A498 renal,> 100 µM
same,TGI,ACHN renal,> 100 µM
same,TGI,M19-MEL melanoma,> 100 µM
same,TGI,SF-295 CNS,> 100 µM
same,TGI,SNB-75 CNS,> 100 µM
same,TGI,SK-MEL-28 melanoma,> 100 µM
same,TGI,LXFL 529 NSCLC,> 100 µM
same,TGI,SNB-19 CNS,> 100 µM
same,TGI,DLD-1 colon,> 100 µM
same,TGI,CAKI-1 renal,> 100 µM
same,TGI,LOX IMVI melanoma,> 100 µM
same,TGI,NCI-H460 lung,> 100 µM
same,TGI,RPMI-8226 leukemia,> 100 µM
same,TGI,U251 CNS,> 100 µM
same,TGI,NCI-H522 lung,> 100 µM
same,TGI,HOP-92 NSCLC,> 100 µM
same,TGI,HOP-18 NSCLC,> 100 µM
same,TGI,MOLT-4 leukemia,> 100 µM
same,TGI,MALME-3M melanoma,> 100 µM
same,TGI,HCT-15 colon,> 100 µM
same,TGI,UO-31 renal,> 100 µM
same,TGI,HL-60(TB) leukemia,> 100 µM
same,TGI,SN12C renal,> 100 µM
same,TGI,K-562 leukemia,> 100 µM
same,TGI,NCI-H23 lung,> 100 µM
same,TGI,SK-MEL-2 melanoma,> 100 µM
same,TGI,OVCAR-3 ovarian,> 100 µM
same,TGI,TK-10 renal,> 100 µM
same,TGI,XF 498 CNS,91.2 µM
same,TGI,SW-620 colon,> 100 µM
same,TGI,SF-539 CNS,> 100 µM
same,TGI,CCRF-CEM leukemia,> 100 µM
same,TGI,HT29 colon,> 100 µM
same,TGI,UACC-62 melanoma,> 100 µM
same,TGI,M14 melanoma,> 100 µM
same,TGI,SF-268 CNS,> 100 µM
same,TGI,SK-MEL-5 melanoma,> 100 µM
same,TGI,SNB-78 CNS,> 100 µM
same,TGI,DMS 114 small cell lung,> 100 µM
same,TGI,NCI-H226 lung,> 100 µM
same,TGI,KM20L2 colon,> 100 µM
same,TGI,OVCAR-8 ovarian,> 100 µM
same,TGI,COLO 205 colon,> 100 µM
same,TGI,IGROV1 ovarian,> 100 µM
same,TGI,SK-OV-3 ovarian,> 100 µM
same,TGI,EKVX NSCLC,> 100 µM
